Measured values: patent publication US12636249B2, “Concentrated injectable tranexamic acid compositions and methods of use thereof” (Galen Limited, priority 2022, dated 2026)
Read-outs that look alike come from different tables or passages of the source. Blank lines part the entries; values can stand above or below the compound they belong to.

Assays:
[1] = Pharmacokinetics of TXA in swine plasma after IV and IM administration; format: in vivo, domestic pigs; settings: for Cmax: read-out: Cmax range; for duration of effective plasma concentration (FIG. 13): effective level about 10 to about 15 ug/ml; for time effective TXA levels are maintained (FIG. 13 legend): target about 15 ug/mL
Experimental: Studies of pharmacokinetics (PK) and pharmacodynamics (PD) of TXA were performed in swine conducted in compliance with Good Laboratory Practice (GLP) standards. All facilities and activities were accredited in accordance with GLP and ISO9001 (2015).
Eighteen domestic pigs were assigned to four test groups. Group 1: Control, IM administered with vehicle (0.9% NaCl, pH 3-4, w/v), two animals were administered 2 mL vehicle, one animal administered 4 mL vehicle.
IM injections were performed using an auto-injector. […] PK analysis was noncompartmental. Following sacrifice, animals were subjected to a full detailed necropsy and histopathological evaluation performed on injection sites and major organs.
Additional blood samples were collected for Complete Blood Count (CBC), biochemistry profile and prothrombin time/partial thromboplastin time (PT/PTT) at baseline, 1, 3, and 72 hr post dosing. For thromboelastographic (TEG) analysis blood was collected at base line, 1, 3 and 6 hr post dosing. The study was conducted over 5 separate dosing sessions. For each session the animals were acclimatized for at least 4 days prior to Central Venous Catheter (CVCs) placement procedure. All animals were sacrificed 72 hours post treatment and were subjected to a full gross necropsy. Organ samples and injection sites were collected for histopathological analysis.
Pharmacokinetic and bioanalytical analysis of Tranexamic acid, based on plasma samples, was performed. On the date of analysis, plasma samples were thawed at room temperature, along with calibration and QC samples. 50 μL of plasma were taken for analysis. Tranexamic acid and its internal standard were separated from pig plasma by protein precipitation. The samples were analyzed by a validated high-performance liquid chromatography-mass spectrometry/mass spectrometry (HPLC-MS/MS) method, using Hilic Silica 3 μm column with an electro-spray interface, in a positive ion mode.

[2] = bleeding trauma patients, cited from earlier work
fibrinolysis = settings: in vitro and in vivo pharmacodynamics studies (Picetti et al., 2019); cited from earlier work
[3] = cited from earlier work
[4] = adult patients with traumatic cardiac arrest, prehospital administration; cited from earlier work

AUC(0-inf) ([1]; pig, plasma, im, 1 g, swine Group 3: 1 g TXA IM, n=5, read-out: AUCINF_pred range): 81500 to 90300 ng·h/mL | Tmax ([1]; pig, plasma, im, 1 g, swine Group 3: 1 g TXA IM, n=5, read-out: Tmax range): 15 to 120 min | AUC(0-inf) ([1]; pig, plasma, im, 1 g, swine Group 3: 1 g TXA IM, n=5, read-out: mean AUCINF_pred (converted)): 84800 ng·h/mL | Tmax ([1]; pig, plasma, im, 1 g, swine Group 3: 1 g TXA IM, read-out: mean Tmax (converted)): 44 min | Cmax ([1]; pig, plasma, im, 1 g): 20100 to 34800 ng/mL | AUC(0-inf) ([1]; pig, plasma, im, 2 g, swine Group 4: 2 g TXA IM, n=5, read-out: AUCINF_pred range): 134000 to 148000 ng·h/mL | Tmax ([1]; pig, plasma, im, 2 g, swine Group 4: 2 g TXA IM, n=5, read-out: Tmax range): 30 to 60 min | AUC(0-inf) ([1]; pig, plasma, im, 2 g, swine Group 4: 2 g TXA IM, n=5, read-out: mean AUCINF_pred (converted)): 141000 ng·h/mL | Tmax ([1]; pig, plasma, im, 2 g, swine Group 4: 2 g TXA IM, read-out: mean Tmax (converted)): 41.8 min | Cmax ([1]; pig, plasma, im, 2 g): 35700 to 47000 ng/mL | bioavailability ([1]; pig, plasma, intramuscular, 1 g): > 100% | Tmax ([1]; pig, plasma, iv, 1 g, swine Group 2: 1 g TXA IV, n=5, read-out: Tmax range): 11 to 12 min | AUC(0-inf) ([1]; pig, plasma, iv, 1 g, swine Group 2: 1 g TXA IV, n=5, read-out: mean AUCINF_pred (converted)): 74000 ng·h/mL | Tmax ([1]; pig, plasma, iv, 1 g, swine Group 2: 1 g TXA IV, read-out: mean Tmax (converted)): 11.2 min | Cmax ([1]; pig, plasma, iv, 1 g): 40900 to 78500 ng/mL | mean peak plasma concentration (mean concentration-time curve, FIG. 9) ([1]; swine Group 2, n=5: 1 g TXA IV, 10 mL of 100 mg/mL TRANEX injection pH 6.5-8 over 10 min): 64 µg/mL | time of mean peak plasma concentration ([1]; swine Group 2: 1 g TXA IV, time from end of 10 min IV injection): 1 min | mean peak plasma concentration (mean concentration-time curve, FIG. 9) ([1]; swine Group 3, n=5: 1 g TXA IM, 2 mL of 500 mg/mL formulation A pH 3-4): 24.2 µg/mL | time of mean peak plasma concentration ([1]; swine Group 3: 1 g TXA IM, post dosing): ≤ 20 min | mean peak plasma concentration (mean concentration-time curve, FIG. 9) ([1]; swine Group 4, n=5: 2 g TXA IM, 4 mL of 500 mg/mL formulation A pH 3-4): 41 µg/mL | time of mean peak plasma concentration ([1]; swine Group 4: 2 g TXA IM, post dosing): ≤ 45 min | duration of effective plasma concentration (FIG. 13) ([1]; swine, 1 g IM TXA): about 130 minutes | duration of effective plasma concentration (FIG. 13) ([1]; swine, 1 g IV TXA): about 80 minutes | dose proportionality ([1]; swine, 1 g versus 2 g IM): exhibits dose proportionality | duration of effective plasma concentration (FIG. 13) ([1]; swine, 2 g IM TXA): about 200 minutes | time effective TXA levels are maintained (FIG. 13 legend) ([1]; swine, IM administration): > 130 min | time effective TXA levels are maintained (FIG. 13 legend) ([1]; swine, IV administration): < 105 min
SMILES: NC[C@H]1CC[C@H](C(=O)O)CC1 [TXA, trans-4-(aminomethyl) cyclohexanecarboxylic acid]
bioavailability of IM TXA ([2]; 1 gram IM as two 5 ml (0.5 g each) injections): 77% | tolerability of IM injections ([2]; 1 gram IM as two 5 ml injections): well-tolerated | time to therapeutic plasma concentrations ([2]; after IM injection of 1 gram): ≤ 15 min | TXA concentration in blood or plasma giving substantial inhibition of fibrinolysis (fibrinolysis): 10 to 15 µg/mL

SMILES: OCc1ccccc1 [benzyl alcohol]
cutaneous anesthesia ([3]; intradermal 1 ml 0.9% benzyl alcohol with epinephrine): prolonged cutaneous anesthesia | pain on injection ([3]; versus lidocaine with epinephrine): significantly less painful on injection

SMILES: CNC[C@H](O)c1ccc(O)c(O)c1 [epinephrine]
short-term survival [4]: increased short-term survival
